Reference: patent US8053439B2, “Benzophenone derivatives useful for inhibiting formation of microtubule” (Chong Kun Dang Pharmaceutical Corp., priority 2006, dated 2011)
Where two headings read alike, the source gives them in different places.

System: HL60 cells
Experiment: Inhibition effect of HL60 cell line growth (MTT, 3 days)
Assay type: cell-based
Details: Homo sapiens, HL-60, 72 h, read-out: HL60 Growth Inhibition
Protocol: 1. Inhibition Effect of HL60 Cell Line Growth
A 10% FBS-contained RPMI1640 badge was used for culturing HL60 cells. The test substance was prepared by dissolving in DMSO to a concentration of 10 mg/ml, and continuously diluting with PBS to a final concentration of 100 μg/ml to 0.03 μg/ml. In a 96-well microplate, 180 μl of the badge containing 6.0×10^4 cells/ml of cells and 20 μl of continuously diluted test substance were added. The mixture was cultured at 37° C. with 5% CO2 atmosphere for 3 days. After completion of the cultivation, 50 μl of a solution of 1.25 mg/ml MTT (3-(4,5-dimethylthiazol-2-yl)-2,5-diphenyltetrazolium bromide) dissolved in PBS was added to all wells, and the resulting mixture was reacted at 37° C. for 3 hours. Thus formed formazan crystals were dissolved in 150 μl of DMSO, and an absorbance was measured at 570 nm.

[1] = HL60 cells, 3 days culture, MTT, absorbance 570 nm

| Compound | IC50 [1] | IC50 |
| --- | --- | --- |
| COc1cc(C(=O)c2ccc(-c3cncs3)cc2-n2cncn2)cc(OC)c1OC [Compound 534, (4-(thiazol-5-yl)-2-(1H-1,2,4-triazol-1-yl)phenyl)(3,4,5-trimethoxyphenyl)methanone] | 0.06 µM | – |
| COc1cc(C(=O)c2ccc(-c3nccs3)cc2-n2cncn2)cc(OC)c1OC(F)F [Compound 538, (4-(difluoromethoxy)-3,5-dimethoxyphenyl)(4-(thiazol-2-yl)-2-(1H-1,2,4-triazol-1-yl)phenyl)methanone] | 0.28 µM | – |
| COc1cc(C(=O)c2ccc(-c3csc(N)n3)cc2-n2cncn2)cc(OC)c1OC(F)F [Compound 547, (4-(2-aminothiazol-4-yl)-2-(1H-1,2,4-triazol-1-yl)phenyl)(4-(difluoromethoxy)-3,5-dimethoxyphenyl)methanone] | 0.03 µM | – |
| COc1cc(C(=O)c2ccc(-c3cccc(S(N)(=O)=O)c3)cc2-n2cncn2)cc(OC)c1OC [Compound 550] | 0.02 µM | – |
| COc1cc(C(=O)c2ccc(-c3nc(CO)cs3)cc2-n2cncn2)cc(OC)c1OC [Compound 554, ((4-(4-hydroxymethyl)thiazol-2-yl)-2-(1H-1,2,4-triazol-1-yl)phenyl)(3,4,5-trimethoxyphenyl)methanone] | 0.09 µM | – |
| COc1cc(C(=O)c2ccc(-c3csc(NC(C)=O)n3)cc2-n2cncn2)cc(OC)c1OC [Compound 560, N-(4-(3-(1H-1,2,4-triazol-1-yl)-4-(3,4,5-trimethoxybenzoyl)phenyl)thiazol-2-yl)acetamide] | 0.09 µM | – |
| COC(=O)Nc1nc(-c2ccc(C(=O)c3cc(OC)c(OC)c(OC)c3)c(-n3cncn3)c2)cs1 [Compound 561, methyl 4-(3-(1H-1,2,4-triazol-1-yl)-4-(3,4,5-trimethoxybenzoyl)phenyl)thiazol-2-yl carbamate] | 0.32 µM | – |
| COc1cc(C(=O)c2ccc(-c3cscn3)cc2-n2cncn2)cc(OC)c1OC [Compound 562, (4-(thiazol-4-yl)-2-(1H-1,2,4-triazol-1-yl)phenyl)(3,4,5-trimethoxyphenyl)methanone] | – | 0.08 µM |
| COc1cc(C(=O)c2ccc(-c3csc(C(C)(C)O)n3)cc2-n2cncn2)cc(OC)c1OC [Compound 563, (4-(2-(2-hydroxypropan-2-yl)thiazol-4-yl)-2-(1H-1,2,4-triazol-1-yl)phenyl)(3,4,5-trimethoxyphenyl)methanone] | 0.25 µM | – |
| COc1cc(C(=O)c2ccc(-c3csc(CO)n3)cc2-n2cncn2)cc(OC)c1OC [Compound 564, (4-(2-(hydroxymethyl)thiazol-4-yl)-2-(1H-1,2,4-triazol-1-yl)phenyl)(3,4,5-trimethoxyphenyl)methanone] | 0.09 µM | – |
| COc1cc(C(=O)c2cccc(-c3ccsc3)c2)cc(OC)c1OC [Compound 568, (3-(thiophen-3-yl)phenyl)(3,4,5-trimethoxyphenyl)methanone] | 0.36 µM | – |
| COc1cc(C(=O)c2cccc(-c3csc(N)n3)c2)cc(OC)c1OC [Compound 570, (3-(2-aminothiazol-4-yl)phenyl)(3,4,5-trimethoxyphenyl)methanone] | 0.12 µM | – |
| COc1cc(C(=O)c2ccc(-c3csc(N)n3)cc2)cc(OC)c1OC [Compound 571, (4-(2-aminothiazol-4-yl)phenyl)(3,4,5-trimethoxyphenyl)methanone] | 0.11 µM | – |
| COc1cc(C(=O)c2cccc(-c3nccs3)c2)cc(OC)c1OC [Compound 581] | 0.04 µM | – |
| COc1ccc(-c2nccs2)cc1C(=O)c1cc(OC)c(OC)c(OC)c1 [Compound 583, (2-methoxy-5-(thiazol-2-yl)phenyl)(3,4,5-trimethoxyphenyl)methanone] | – | 0.01 µM |
| COc1cc(C(=O)c2cccc(-c3ncco3)c2)cc(OC)c1OC [Compound 587, (3-(oxazol-2-yl)phenyl)(3,4,5-trimethoxyphenyl)methanone] | 0.04 µM | – |
| COc1ccc(-c2ccsc2)cc1C(=O)c1cc(OC)c(OC)c(OC)c1 [Compound 588, (2-methoxy-5-(thiophen-3-yl)phenyl)(3,4,5-trimethoxyphenyl)methanone] | 0.12 µM | – |
| COc1ccc(-c2ncco2)cc1C(=O)c1cc(OC)c(OC)c(OC)c1 [Compound 590, (2-methoxy-5-(oxazol-2-yl)phenyl)(3,4,5-trimethoxyphenyl)methanone] | – | 0.01 µM |
| COc1cc(C(=O)c2cccc(-c3ccc[nH]3)c2)cc(OC)c1OC [Compound 591, (3-(1H-pyrrol-2-yl)phenyl)(3,4,5-trimethoxyphenyl)methanone] | 0.2 µM | – |
| COc1ccc(-c2cccs2)cc1C(=O)c1cc(OC)c(OC)c(OC)c1 [Compound 594, (2-methoxy-5-(thiophen-2-yl)phenyl)(3,4,5-trimethoxyphenyl)methanone] | 0.12 µM | – |
| COc1ccc(-c2csc(C)n2)cc1C(=O)c1cc(OC)c(OC)c(OC)c1 [Compound 595, (2-methoxy-5-(methylthiazol-4-yl)phenyl)(3,4,5-trimethoxyphenyl)methanone] | 0.12 µM | – |
| COc1cc(C(=O)c2cc(-c3csc(C)n3)ccc2-n2cncn2)cc(OC)c1OC [Compound 596, (5-(2-methylthiazol-4-yl)-2-(1H-1,2,4-triazol-1-yl)phenyl)(3,4,5-trimethoxyphenyl)methanone] | 0.23 µM | – |
| COc1cc(C(=O)c2cc(-c3ccc[nH]3)ccc2N)cc(OC)c1OC [Compound 597, (2-amino-5-(1H-pyrrol-2-yl)phenyl)(3,4,5-trimethoxyphenyl)methanone] | 0.22 µM | – |
| COc1ccc(-c2ccn[nH]2)cc1C(=O)c1cc(OC)c(OC)c(OC)c1 [Compound 598, (2-methoxy-5-(1H-pyrazol-5-yl)phenyl)(3,4,5-trimethoxyphenyl)methanone] | 0.39 µM | – |
| COc1cc(C(=O)c2ccc(-c3ccc[nH]3)cc2-n2cncn2)cc(OC)c1OC [Compound 599, (4-(1H-pyrrol-2-yl)-2-(1H-1,2,4-triazol-1-yl)phenyl)(3,4,5-trimethoxyphenyl)methanone] | 0.14 µM | – |
| COc1cc(C(=O)c2cc(-c3nccs3)ccc2O)cc(OC)c1OC [Compound 601, (2-hydroxy-5-(thiazol-2-yl)phenyl)(3,4,5-trimethoxyphenyl)methanone] | 0.09 µM | – |
| COc1cc(C(=O)c2ccc(-c3ncco3)cc2-n2cncn2)cc(OC)c1OC [Compound 602, (4-(oxazol-2-yl)-2-(1H-1,2,4-triazol-1-yl)phenyl)(3,4,5-trimethoxyphenyl)methanone] | 0.17 µM | – |
